{"source": "patent US5597798A", "about": "“Taxol and epidermal growth factor used to enhance treatment of ovarian cancer” (The Regents of the University of California, priority 1994, dated 1997)", "key": {"[1]": {"test_system": "2008 human ovarian carcinoma cells", "experiment": "Colony forming assay, effect of EGF on sensitivity to cytotoxic agents", "assay_type": "cell-based"}, "2008 tumor xenografts": {"test_system": "2008 tumor xenografts", "experiment": "Effect of EGF on cisplatin toxicity against tumor xenografts in athymic mice", "assay_type": "in vivo, athymic mice (nu/nu)", "procedure": "For these studies, 3 to 4 week old female athymic mice (nu/nu) from BALB/c origin were used which were supplied by Harlan Sprague Dawley, Inc. (Indianapolis, Ind.). The mice were kept in a laminar flow hood at 28° C. and fed standard mouse diet and water ad libitum.\nTumor xenografts were established from 2008 cells by harvesting confluent cell cultures by trypsinization and resuspending the cells in RPMI 1640 medium at 2.5×10^7 cells per ml. From this suspension, 0.2 ml aliquots containing 5×10^6 cells were injected s.c. on each shoulder of the athymic mice. In each mouse, two tumors were followed and tumor volumes were determined using the formula (length×width^2)/2 (Giavazzi et al., Cancer Res. 46:1928 (1986) and Tomayko & Reynolds Cancer Chemother. Pharmacol. 24:148 (1989)).\nIn all groups, treatment was administered 24 hours after the inoculation with tumor cells.\nTumor growth of each tumor in each animal was expressed as plot of in(tumor volume) as a function of time. The regression line of the in(tumor volume) versus time plot was calculated by using the method of least squares. The intercept and slope were obtained and used to calculate the time each tumor required to reach an arbitrarily defined volume of 1 ml. This volume was chosen because most tumors in all treatment groups reached this endpoint. For comparisons between two groups the unpaired Student's T-test was used. […]"}, "2008/C13*5 cells": {"test_system": "2008/C13*5 cells", "experiment": "Cellular accumulation of DDP", "assay_type": "cell-based, human", "conditions": "medium alone, end of a 1-h incubation", "procedure": "(§1) Cell-associated ^195m Pt was determined by as a measure of DDP accumulation. For DDP accumulation studies, subconfluent monolayers were treated with 37° C. RPMI 1640 medium containing 20 μM [^195m Pt]-DDD. The dishes were immediately returned to the incubater. After 1 h incubation, the medium was aspirated, the cells were washed rapidly with 4° C. PBS 4 times. Two ml of 1N NaOH was added and the cells allowed to digest overnight. A forty μl aliquot was used for determination of protein content by the method of Bradford (Bradford, Anal. Biochem. 72:248-254 (1976)), and the remaining […] was counted in glass tubes on a Trak 1191 gamma counter (Tracer Analytic, EIK Grove Village, Ill.). Columns represent the mean values of 3 experiments performed with duplicate cultures. The bars represent the standard deviation.\nThe 2008/C13*5 cell line is 8-10-fold resistant to DDP. […] C13*5 cells were treated with appropriate concentration of DDP in the presence (.circle-solid.) or absence (0) of 10^-7 M TPA for 1 h. Drug cytotoxicity was determined by colonogenic assay on plastic dishes. Each point represents the mean values of 3 experiments performed with triplicate cultures. The bars represent the standard deviation. […] This 2.6-fold sensitization was nearly identical with the 2.5 fold sensitization observed in the DDP-sensitive 2008 cells. […]"}, "2008 cells": {"test_system": "2008 cells", "experiment": "Cellular accumulation of [195mPt]DDP", "assay_type": "cell-based, human", "conditions": "60 min", "procedure": "as §1\nCultured 2008 cells were treated concurrently with [^195m Pt]DDP and TPA for 60 min. A vehicle control consisting of an appropriate dilution of acetone was run concurrently. […] Cells treated with medium alone contained 140±13 pmol/mg of protein, whereas those treated with the acetone control contained 141±7 pmol/mg of protein, and those treated with TPA contained 143±21 pmol/mg of protein."}}, "note": "Like-named read-outs stand apart in the source and are kept apart here."}
{"compound": "N.N.[Cl][Pt][Cl]", "note": "[cisplatin]", "values": [{"measurement": "effect of EGF on sensitivity of 2008 cells to the agent (in words)", "setting": "[1]; EGF and the cytotoxic agent concurrently for 1 h", "result": "significant increase in sensitivity"}, {"measurement": "Dose modifying factor", "setting": "[1]; Table 3, ratio of IC50 in control and EGF-treated cells", "result": 2.7}, {"measurement": "IC50", "setting": "[1]; read-out: IC50 in absence of EGF, Table 3, cisplatin 1 h, no EGF", "result": 2450, "unit": "nM"}, {"measurement": "IC50", "setting": "[1]; read-out: IC50 in absence of EGF, cytotoxic agent for 1 h, no EGF", "result": 2800, "unit": "nM"}, {"measurement": "IC50", "setting": "[1]; read-out: IC50 in presence of EGF, EGF and the cytotoxic agent concurrently for 1 h", "result": 900, "unit": "nM"}, {"measurement": "IC50", "setting": "[1]; read-out: IC50 in presence of EGF, Table 3, 10 nM EGF and cisplatin concurrently for 1 h", "result": 910, "unit": "nM"}, {"measurement": "final tumor volume", "setting": "2008 tumor xenografts; 1 mg/kg EGF s.c. and/or 15 mg/kg cisplatin i.p., 24 hours after inoculation", "result": "significantly reduced relative to control tumors"}, {"measurement": "additional time required for tumors to reach a volume of 1 ml vs control tumors", "setting": "2008 tumor xenografts; 15 mg/kg cisplatin i.p.", "result": 6, "unit": "days"}, {"measurement": "DDP accumulated", "setting": "2008/C13*5 cells", "result": "37.0±3 pmol/mg of protein"}, {"measurement": "cellular accumulation of [195mPt]DDP", "setting": "2008 cells; medium alone", "result": "140±13 pmol/mg of protein"}, {"measurement": "cellular accumulation of [195mPt]DDP", "setting": "2008 cells; treated concurrently with TPA", "result": "143±21 pmol/mg of protein"}]}
